Laboratory results from patent US20240350520A1, “Method to Stimulate the Growth of Veillonella in Human Gut and Increase Athletic Performance” (Mellitas Health Foods, LLC, priority 2023, published 2024).

Tested on: Veillonella in human gut
Assay: Veillonella level in human fecal samples by 16S rRNA sequencing before and after 2′-Fucosyllactose supplementation
Assay type: in vivo
Description: The genus, Veillonella, were quantified through the fecal samples collected by the human subjects. 16S ribosomal RNA (rRNA) sequencing was used to quantify the relative abundance of Veillonella in the human fecal samples. Veillonella levels were expressed as a percentage of total gut bacteria. Veillonella levels were quantified before the supplementation of 2′-Fucosyllactose and also after the supplementation of 2′-Fucosyllactose. The human subjects were asked to take 2′-Fucosyllactose daily doses ranging from 2000 mg to 4500 mg for 20-60 days with liquid and not to change their regular diet during the period. Four healthy subjects were asked to test their fecal samples and determine the baseline level of Veillonella before taking the 2′-Fucosyllactose. After collecting their initial fecal samples, they were instructed to take 2′-Fucosyllactose daily at doses between 2000 mg-4500 mg per day with liquid and not change their regular diet. The subject was asked to stop the supplementation of 2′-Fucosyllactose after 20-60 days. The subjects were instructed to collect their fecal samples immediately after stopping the supplementation and the fecal samples were tested thereafter. The levels of Veillonella in the fecal samples were quantified by 16S ribosomal RNA (rRNA) sequencing.

## 2′-Fucosyllactose
Average of 4 human subjects, fecal samples, oral 2000-4500 mg daily, 30-45 days, 0.018% before intake, P<0.05
  level of Veillonella (percentage of total gut bacteria) after 2′-Fucosyllactose intake: 0.046%
Daily dosages of 2000-4500 mg, after 20-60 days
  change of the level of Veillonella in the human gut: significantly increased
Human subjects, supplementation for 30-45 days, FIG. 1
  change of the level of Veillonella in the gut: significantly increased
